Experimental data from PubChem BioAssay (NCI).
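Exposure lasted 48 hours, with cells grown in 96-well plates and compounds tested at five concentrations. Abbreviation: GI50, concentration required for 50% inhibition of growth. TGI is the concentration that stops growth completely.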 Peptide text beside a SMILES is read from it.

What follows are compounds tested on DU-145 prostate (assay: inhibition of tumour cell growth, NCI panel, 48 h).

| SMILES | GI50 [µM] | TGI [µM] |
| --- | --- | --- |
| S=c1ssc(N2CCOCC2)c1Cl | 20.3 | 56.5 |
| COc1ccc(/C=C/c2c(C(=O)/C=C/c3ccccc3)c(C)nc3ccccc23)cc1 | 1.68 | 3.16 |

The compounds below were run on PC-3 prostate (assay: inhibition of tumour cell growth, NCI panel, 48 h).

| SMILES | TGI [µM] | GI50 [µM] |
| --- | --- | --- |
| Oc1c(N2CCOCC2)cc(-c2cc(N3CCOCC3)c(O)c3ccccc23)c2ccccc12 | 14.6 |  |
| C=C(C)[C@@H]1CC[C@]2(CO)CC[C@]3(C)[C@H](CC[C@@H]4[C@@]5(C)C=C(C#N)C(=O)C(C)(C)[C@@H]5CC[C@]43C)[C@@H]12 | 5.42 | 1.57 |
| S=c1ssc(N2CCOCC2)c1Cl | > 100 | 40.2 |
| COc1ccc(/C=C/c2c(C(=O)/C=C/c3ccccc3)c(C)nc3ccccc23)cc1 | 3.81 | 1.66 |

What follows are compounds tested on KM12 colon (assay: inhibition of tumour cell growth, NCI panel, 48 h).

| SMILES | TGI [µM] | GI50 |
| --- | --- | --- |
| Oc1c(N2CCOCC2)cc(-c2cc(N3CCOCC3)c(O)c3ccccc23)c2ccccc12 | 25.4 |  |
| S=c1ssc(N2CCOCC2)c1Cl | > 100 | 31 µM |
| COc1ccc(/C=C/c2c(C(=O)/C=C/c3ccccc3)c(C)nc3ccccc23)cc1 | 3.52 | 1.77 µM |
| CCOC(=O)CNC(=O)C(Cc1ccccc1)NC(=O)C(N)CC(=O)O (stereo not drawn) (H-Asp-Phe-Gly-OEt; configuration not given here) |  | 0.194 mg/L |

These compounds were tested on CCRF-CEM leukemia (assay: inhibition of tumour cell growth, NCI panel, 48 h).

| SMILES | GI50 | TGI [µM] |
| --- | --- | --- |
| C=C(C)[C@@H]1CC[C@]2(CO)CC[C@]3(C)[C@H](CC[C@@H]4[C@@]5(C)C=C(C#N)C(=O)C(C)(C)[C@@H]5CC[C@]43C)[C@@H]12 | 2.11 µM | 8.7 |
| COc1ccc(/C=C/c2c(C(=O)/C=C/c3ccccc3)c(C)nc3ccccc23)cc1 | 2.33 µM | > 100 |
| CCOC(=O)CNC(=O)C(Cc1ccccc1)NC(=O)C(N)CC(=O)O (stereo not drawn) (H-Asp-Phe-Gly-OEt; configuration not given here) | 85.2 mg/L |  |

The compounds below were run on A498 renal (assay: inhibition of tumour cell growth, NCI panel, 48 h).

| SMILES | GI50 [µM] | TGI [µM] |
| --- | --- | --- |
| C=C(C)[C@@H]1CC[C@]2(CO)CC[C@]3(C)[C@H](CC[C@@H]4[C@@]5(C)C=C(C#N)C(=O)C(C)(C)[C@@H]5CC[C@]43C)[C@@H]12 | 1.37 | 2.99 |
| COc1ccc(/C=C/c2c(C(=O)/C=C/c3ccccc3)c(C)nc3ccccc23)cc1 | 1.7 | 3.15 |

The compounds below were run on SF-268 CNS (assay: inhibition of tumour cell growth, NCI panel, 48 h).

| SMILES | TGI [µM] | GI50 [µM] |
| --- | --- | --- |
| Oc1c(N2CCOCC2)cc(-c2cc(N3CCOCC3)c(O)c3ccccc23)c2ccccc12 | 17.8 |  |
| C=C(C)[C@@H]1CC[C@]2(CO)CC[C@]3(C)[C@H](CC[C@@H]4[C@@]5(C)C=C(C#N)C(=O)C(C)(C)[C@@H]5CC[C@]43C)[C@@H]12 | 4.78 | 1.46 |
| S=c1ssc(N2CCOCC2)c1Cl | 71 | 23.3 |
| COc1ccc(/C=C/c2c(C(=O)/C=C/c3ccccc3)c(C)nc3ccccc23)cc1 | 5.65 | 2.18 |

The compounds below were run on EKVX NSCLC (assay: inhibition of tumour cell growth, NCI panel, 48 h).

| SMILES | TGI [µM] | GI50 [µM] |
| --- | --- | --- |
| Oc1c(N2CCOCC2)cc(-c2cc(N3CCOCC3)c(O)c3ccccc23)c2ccccc12 | 41.6 |  |
| C=C(C)[C@@H]1CC[C@]2(CO)CC[C@]3(C)[C@H](CC[C@@H]4[C@@]5(C)C=C(C#N)C(=O)C(C)(C)[C@@H]5CC[C@]43C)[C@@H]12 | 4.61 | 1.63 |
| S=c1ssc(N2CCOCC2)c1Cl | > 100 | 58 |
| COc1ccc(/C=C/c2c(C(=O)/C=C/c3ccccc3)c(C)nc3ccccc23)cc1 | 3.56 | 1.77 |

Each compound was assayed on UACC-257 melanoma (assay: inhibition of tumour cell growth, NCI panel, 48 h).

| SMILES | TGI [µM] | GI50 [µM] |
| --- | --- | --- |
| Oc1c(N2CCOCC2)cc(-c2cc(N3CCOCC3)c(O)c3ccccc23)c2ccccc12 | 5.11 |  |
| C=C(C)[C@@H]1CC[C@]2(CO)CC[C@]3(C)[C@H](CC[C@@H]4[C@@]5(C)C=C(C#N)C(=O)C(C)(C)[C@@H]5CC[C@]43C)[C@@H]12 | 3.04 | 1.29 |
| S=c1ssc(N2CCOCC2)c1Cl | > 100 | > 100 |
| COc1ccc(/C=C/c2c(C(=O)/C=C/c3ccccc3)c(C)nc3ccccc23)cc1 | 3.21 | 1.7 |

Each compound was assayed on 786-0 renal (assay: inhibition of tumour cell growth, NCI panel, 48 h).

| SMILES | GI50 [µM] | TGI [µM] |
| --- | --- | --- |
| C=C(C)[C@@H]1CC[C@]2(CO)CC[C@]3(C)[C@H](CC[C@@H]4[C@@]5(C)C=C(C#N)C(=O)C(C)(C)[C@@H]5CC[C@]43C)[C@@H]12 | 1.92 | 3.98 |
| S=c1ssc(N2CCOCC2)c1Cl | > 100 | > 100 |
| COc1ccc(/C=C/c2c(C(=O)/C=C/c3ccccc3)c(C)nc3ccccc23)cc1 | 1.76 | 3.31 |

What follows are compounds tested on HS 578T breast (assay: inhibition of tumour cell growth, NCI panel, 48 h).

| SMILES | TGI [µM] | GI50 |
| --- | --- | --- |
| Oc1c(N2CCOCC2)cc(-c2cc(N3CCOCC3)c(O)c3ccccc23)c2ccccc12 | > 100 |  |
| C=C(C)[C@@H]1CC[C@]2(CO)CC[C@]3(C)[C@H](CC[C@@H]4[C@@]5(C)C=C(C#N)C(=O)C(C)(C)[C@@H]5CC[C@]43C)[C@@H]12 | 6.84 | 1.89 µM |
| CCOC(=O)CNC(=O)C(Cc1ccccc1)NC(=O)C(N)CC(=O)O (stereo not drawn) (H-Asp-Phe-Gly-OEt; configuration not given here) |  | 9.31 mg/L |

The compounds below were run on UO-31 renal (assay: inhibition of tumour cell growth, NCI panel, 48 h).

| SMILES | TGI [µM] | GI50 [µM] |
| --- | --- | --- |
| Oc1c(N2CCOCC2)cc(-c2cc(N3CCOCC3)c(O)c3ccccc23)c2ccccc12 | 4.66 |  |
| C=C(C)[C@@H]1CC[C@]2(CO)CC[C@]3(C)[C@H](CC[C@@H]4[C@@]5(C)C=C(C#N)C(=O)C(C)(C)[C@@H]5CC[C@]43C)[C@@H]12 | 2.77 | 1.05 |
| S=c1ssc(N2CCOCC2)c1Cl | > 100 | > 100 |
| COc1ccc(/C=C/c2c(C(=O)/C=C/c3ccccc3)c(C)nc3ccccc23)cc1 | 2.54 | 1.28 |

Each compound was assayed on M14 melanoma (assay: inhibition of tumour cell growth, NCI panel, 48 h).

| SMILES | GI50 [µM] | TGI [µM] |
| --- | --- | --- |
| C=C(C)[C@@H]1CC[C@]2(CO)CC[C@]3(C)[C@H](CC[C@@H]4[C@@]5(C)C=C(C#N)C(=O)C(C)(C)[C@@H]5CC[C@]43C)[C@@H]12 | 1.55 | 3.78 |
| S=c1ssc(N2CCOCC2)c1Cl | > 100 | > 100 |
| COc1ccc(/C=C/c2c(C(=O)/C=C/c3ccccc3)c(C)nc3ccccc23)cc1 | 1.84 | 4.44 |

These compounds were tested on NCI-H522 lung (assay: inhibition of tumour cell growth, NCI panel, 48 h).

| SMILES | TGI [µM] | GI50 [µM] |
| --- | --- | --- |
| Oc1c(N2CCOCC2)cc(-c2cc(N3CCOCC3)c(O)c3ccccc23)c2ccccc12 | 4.89 |  |
| C=C(C)[C@@H]1CC[C@]2(CO)CC[C@]3(C)[C@H](CC[C@@H]4[C@@]5(C)C=C(C#N)C(=O)C(C)(C)[C@@H]5CC[C@]43C)[C@@H]12 | 6.58 | 1.9 |
| S=c1ssc(N2CCOCC2)c1Cl | 55.4 | 20.4 |
| COc1ccc(/C=C/c2c(C(=O)/C=C/c3ccccc3)c(C)nc3ccccc23)cc1 | 4.83 | 1.72 |

Each compound was assayed on A549 NSCLC (assay: inhibition of tumour cell growth, NCI panel, 48 h).

| SMILES | GI50 [µM] | TGI [µM] |
| --- | --- | --- |
| C=C(C)[C@@H]1CC[C@]2(CO)CC[C@]3(C)[C@H](CC[C@@H]4[C@@]5(C)C=C(C#N)C(=O)C(C)(C)[C@@H]5CC[C@]43C)[C@@H]12 | 1.56 | 3.5 |
| S=c1ssc(N2CCOCC2)c1Cl | > 100 | > 100 |

What follows are compounds tested on HCC-2998 colon (assay: inhibition of tumour cell growth, NCI panel, 48 h).

| SMILES | TGI [µM] | GI50 [µM] |
| --- | --- | --- |
| Oc1c(N2CCOCC2)cc(-c2cc(N3CCOCC3)c(O)c3ccccc23)c2ccccc12 | 5.78 |  |
| C=C(C)[C@@H]1CC[C@]2(CO)CC[C@]3(C)[C@H](CC[C@@H]4[C@@]5(C)C=C(C#N)C(=O)C(C)(C)[C@@H]5CC[C@]43C)[C@@H]12 | 4.22 | 2.03 |
| S=c1ssc(N2CCOCC2)c1Cl | > 100 | 30.6 |
| COc1ccc(/C=C/c2c(C(=O)/C=C/c3ccccc3)c(C)nc3ccccc23)cc1 | 3.48 | 1.88 |
